For assay [1], the system named is human colon adenocarcinoma HT-29. Nature of the assay: MTT antiproliferative assay, HT-29. Format: cell-based. As to conditions: mean of 3 independent experiments, read-out: Antiproliferative activity IC50 ± S.D., HT-29. For orientation: Formazan colour is commonly taken as a measure of viable cells.
Assay [2] concerns human promyelocytic leukemia HL-60. Briefly: MTT antiproliferative assay, HL-60. In kind it is cell-based. As to conditions: mean of 3 independent experiments, read-out: Antiproliferative activity IC50 ± S.D., HL-60 (head prints HL-6).
Assay [3] deals with lung adenocarcinoma H1650. Nature of the assay: MTT antiproliferative assay, H1650. In kind it is cell-based. The note with it: mean of 3 independent experiments, read-out: Antiproliferative activity IC50 ± S.D., H1650. On the procedure:
Cell proliferation was evaluated in cell lines by the MTT assay in triplicates. 10^4 cells were plated in a 96-well microtiter plate in a final volume of 100 μl of culture medium. Cells were treated for 24 h with test compound at 37 °C with 5% CO2. After treatment, the cells were immediately incubated with 10 μl MTT (5.0 mg/mL) for 4 h at 37°C. The cells were then lysed in 100 μl of lysis buffer (isopropanol, conc. HCl and Triton X-100) for 10 min at room temperature and 300 rpm/min shaking. The enzymatic reduction of MTT to formazan crystals that dissolved in DMSO was quantified by photometry at 570 nm. […] 5-Flurouracil was used as a positive control.

The target in another assay is T1, Pim-1 kinase (Homo sapiens, UniProt P11309).
T1 construct: purchased Cell Signaling Technology
T1 sequence (P11309 whole entry): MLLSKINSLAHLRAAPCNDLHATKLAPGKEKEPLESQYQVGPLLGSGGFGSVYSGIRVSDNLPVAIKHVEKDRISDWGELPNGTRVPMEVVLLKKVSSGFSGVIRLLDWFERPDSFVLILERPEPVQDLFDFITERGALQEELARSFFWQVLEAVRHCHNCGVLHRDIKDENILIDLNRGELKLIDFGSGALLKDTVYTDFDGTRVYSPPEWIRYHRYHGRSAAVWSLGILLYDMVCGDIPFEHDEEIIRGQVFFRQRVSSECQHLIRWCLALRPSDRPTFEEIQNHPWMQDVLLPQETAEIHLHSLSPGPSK
Nature of the assay: Pim-1 kinase assay (HTScan Kinase Assay). Format: biochemical.

Another assay deals with Pim-1. The arrangement: method as in Nakano et al., 2012. The note with it: ligand of PDB code 3umw; ref Nakano et al., 2012; read-out: Pim-1 IC50 of co-crystalized ligand; cited from earlier work.
[4] abbreviates: Homo sapiens, NCI-H1650, 24 h treatment.
Setting [5] is: Homo sapiens, HT-29, 24 h treatment.
The mark [6] stands for this setting: 50 ng Pim-1, 200 μM ATP, 1.5 μM biotinylated BAD Ser112 peptide, 30 min, mean of 3 independent experiments, read-out: In-vitro Pim-1 kinase inhibitory activity IC50 ± S.D.
Where [7] appears, read: Homo sapiens, HL-60, 24 h treatment.

Molecules are shown by their SMILES. Where two headings read alike, the source gives them in different places.

One may read the IC50 as the point on the concentration scale where inhibition reaches its midpoint. As to `O=c1[nH]cc(F)c(=O)[nH]1` [5-Flurouracil, reference compound], the IC50 is 0.3 ± 0.35 µM in assay [1] (24 h treatment), 0.2 ± 0.43 µM in assay [2] (24 h treatment) and 0.5 ± 0.67 µM in assay [3] (24 h treatment).
For `COc1ccc(/C=C/C(=N)/C=C2/C(=O)Nc3cc(Br)ccc32)cc1` [Compound 1, (E)-6-bromo-3-((E)-2-imino-4-(4-methoxyphenyl)but-3-en-1-ylidene)indolin-2-one], in assay [3] (setting [4]), the half-maximal inhibitory concentration (IC50) was > 100 µM.
Turning to `CC(=O)C[C@@]1(O)C(=O)Nc2cc(Br)ccc21` [Compound 2, (S) enantiomer of (R)-6-Bromo-3-hydroxy-3-(2 oxopropyl)indolin-2-one], the IC50 is > 100 µM in assay [1] (setting [5]), > 20 µM on Pim-1 kinase (setting [6]), > 100 µM in assay [2] (setting [7]) and > 100 µM in assay [3] (setting [4]).
As to `O=C1Nc2cc(Br)ccc2[C@@]1(O)c1c[nH]c2ccccc12` [Compound 3, (S) 6-bromo-3-hydroxy-3-(1H-indol-3-yl) indolin-2-one], in assay [3] (setting [4]), the IC50 was > 100 µM.
As to `C[C@@H]1C[C@H]2CC[C@H](O2)[C@H](C)C(=O)O[C@@H](C)C[C@@H]2CC[C@@H](O2)[C@@H](C)C(=O)O[C@H](C)C[C@H]2CC[C@H](O2)[C@H](C)C(=O)O[C@@H](C)C[C@@H]2CC[C@@H](O2)[C@@H](C)C(=O)O1` [Compound 4, Nonactin], the IC50 in assay [1] (setting [5]) was > 100 µM; on Pim-1 kinase, > 20 µM; in assay [2] (setting [7]) it was > 100 µM; in assay [3] (setting [4]) it was > 100 µM.
As for `CC(c1c[nH]c2ccccc12)c1c[nH]c2ccccc12` [Compound 5, vibrindole], the IC50 is > 100 µM in assay [1] (setting [5]), > 20 µM on Pim-1 kinase (setting [6]), > 100 µM in assay [2] (setting [7]) and > 100 µM in assay [3] (setting [4]).
On to `O=Cc1c[nH]c2ccccc12` [Compound 6, indole-3-carbaldehyde], for which the IC50 in assay [1] (setting [5]) was > 100 µM; at Pim-1 kinase (setting [6]), > 20 µM; in assay [2] (setting [7]) it was > 100 µM; in assay [3] (setting [4]), > 100 µM.
As for `OCCc1c[nH]c2ccccc12` [Compound 7, tryptophol], the IC50 in assay [1] (setting [5]) was > 100 µM; on Pim-1 kinase (setting [6]) it was > 20 µM; in assay [2] (setting [7]) it was > 100 µM; in assay [3] (setting [4]), > 100 µM.
In the case of `O=C(O)C(=O)Cc1c[nH]c2ccccc12` [Compound 8, indole-3-pyruvic acid], the IC50 was > 100 µM in assay [1] (setting [5]), > 20 µM at Pim-1 kinase (setting [6]), > 100 µM in assay [2] (setting [7]) and > 100 µM in assay [3] (setting [4]).
On to `Cc1c[nH]c2ccccc12` [Compound 9, skatole], for which the IC50 in assay [1] (setting [5]) was > 100 µM; at Pim-1 kinase (setting [6]) it was > 20 µM; in assay [2] (setting [7]), > 100 µM; in assay [3] (setting [4]) it was > 100 µM.
As for `O=C(O)c1ccc2ccccc2c1O` [Compound 10, 1-hydroxy-2-naphthoic acid], the IC50 in assay [1] (setting [5]) is > 100 µM; on Pim-1 kinase (setting [6]) it was > 20 µM; in assay [2] (setting [7]) it was > 100 µM; in assay [3] (setting [4]), > 100 µM.
Consider `O=C(O)c1cc(O)c2ccccc2c1O` [Compound 11, 1,4 dihydroxy-2-naphthoic acid], for which the IC50 in assay [1] (setting [5]) is > 100 µM; at Pim-1 kinase (setting [6]), > 20 µM; in assay [2] (setting [7]), > 100 µM; in assay [3] (setting [4]) it was > 100 µM.
For `COc1ccc2c(c1CN1CCNCC1)OC(=Cc1n[nH]c3ccccc13)C2=O` [co-crystalized ligand], the IC50 in the assay with Pim-1 was 0.003 µM.

(Values after PMC6262321, “New Pim-1 Kinase Inhibitor From the Co-culture of Two Sponge-Associated Actinomycetes” (Frontiers in Chemistry, 2018).)
